“And” between values parts separate entries of the source, which are not always exact repeats. Identical values can stand only once.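 Briefly, cells in 96-well plates were exposed to five compound concentrations for 48 h, and endpoints were estimated by linear interpolation. At the GI50, growth is halved. The concentration for full growth arrest is given as TGI.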
Columns and labels:
Assay in all cases: NCI anticancer screen, dose series, 48 h
786-0 renal = test system: 786-0 renal
CAKI-1 renal = test system: CAKI-1 renal
EKVX NSCLC = test system: EKVX NSCLC
HT29 colon = test system: HT29 colon
K-562 leukemia = test system: K-562 leukemia
MOLT-4 leukemia = test system: MOLT-4 leukemia
NCI-H226 lung = test system: NCI-H226 lung
NCI-H23 lung = test system: NCI-H23 lung
NCI/ADR-RES ovarian = test system: NCI/ADR-RES ovarian
OVCAR-3 ovarian = test system: OVCAR-3 ovarian
OVCAR-4 ovarian = test system: OVCAR-4 ovarian
RXF 393 renal = test system: RXF 393 renal
SK-MEL-5 melanoma = test system: SK-MEL-5 melanoma
SNB-19 CNS = test system: SNB-19 CNS
T-47D breast = test system: T-47D breast
UACC-257 melanoma = test system: UACC-257 melanoma

SMILES: COc1ccc(C2C(=O)c3c(OC)cc(OC)cc3OC2c2cccnc2)cc1 (stereo not drawn)
- TGI (786-0 renal): > 100 µM
- TGI (CAKI-1 renal): > 100 µM
- TGI (EKVX NSCLC): > 100 µM
- TGI (HT29 colon): > 100 µM
- TGI (K-562 leukemia): > 100 µM
- TGI (MOLT-4 leukemia): > 100 µM
- TGI (NCI-H226 lung): > 100 µM
- TGI (NCI-H23 lung): > 100 µM
- TGI (NCI/ADR-RES ovarian): > 100 µM
- TGI (OVCAR-3 ovarian): > 100 µM
- TGI (OVCAR-4 ovarian): > 100 µM
- TGI (RXF 393 renal): > 100 µM
- TGI (SK-MEL-5 melanoma): > 100 µM
- TGI (SNB-19 CNS): > 100 µM
- TGI (T-47D breast): > 100 µM
- TGI (UACC-257 melanoma): > 100 µM

SMILES: CC(Oc1ccccc1)C(=O)NNC(=O)OC(C)(C)C (stereo not drawn)
- TGI (786-0 renal): > 100 µM
- TGI (CAKI-1 renal): > 100 µM
- TGI (EKVX NSCLC): > 100 µM
- TGI (HT29 colon): > 100 µM
- TGI (K-562 leukemia): > 100 µM
- TGI (MOLT-4 leukemia): > 100 µM
- TGI (NCI-H226 lung): > 100 µM
- TGI (NCI-H23 lung): > 100 µM
- TGI (NCI/ADR-RES ovarian): > 100 µM
- TGI (OVCAR-3 ovarian): > 100 µM
- TGI (OVCAR-4 ovarian): > 100 µM
- TGI (RXF 393 renal): > 100 µM
- TGI (SK-MEL-5 melanoma): > 100 µM
- TGI (SNB-19 CNS): > 100 µM
- TGI (T-47D breast): > 100 µM
- TGI (UACC-257 melanoma): > 100 µM

SMILES: Brc1cccc(C2ON=C(c3ccccc3)N2C23CC4CC(CC(C4)C2)C3)c1 (stereo not drawn)
- TGI (786-0 renal): > 10 µM
- TGI (CAKI-1 renal): > 10 µM
- TGI (EKVX NSCLC): > 10 µM
- TGI (HT29 colon): > 10 µM
- TGI (K-562 leukemia): > 10 µM
- TGI (MOLT-4 leukemia): > 10 µM
- TGI (NCI-H226 lung): > 10 µM
- TGI (NCI-H23 lung): > 10 µM
- TGI (NCI/ADR-RES ovarian): > 10 µM
- TGI (OVCAR-3 ovarian): > 10 µM
- TGI (OVCAR-4 ovarian): > 10 µM
- TGI (RXF 393 renal): > 10 µM
- TGI (SK-MEL-5 melanoma): > 10 µM
- TGI (SNB-19 CNS): > 10 µM
- TGI (T-47D breast): > 10 µM
- TGI (UACC-257 melanoma): > 10 µM

SMILES: C[C@@H]1CC(=O)C[C@@H]2CC[C@H]3[C@@H]4CC[C@H](OC(=O)c5cccc6cc7ccccc7nc56)[C@H]4CC[C@@H]3[C@H]21
- TGI (786-0 renal): 23.5 µM
- TGI (CAKI-1 renal): 33.7 µM
- TGI (EKVX NSCLC): 34.7 µM
- TGI (HT29 colon): 29.3 µM
- TGI (K-562 leukemia): 38 µM
- TGI (MOLT-4 leukemia): 31.7 µM
- TGI (NCI-H226 lung): 63.7 µM
- TGI (NCI-H23 lung): 30.4 µM
- TGI (NCI/ADR-RES ovarian): 55.1 µM
- TGI (OVCAR-3 ovarian): 29.8 µM
- TGI (OVCAR-4 ovarian): 30.9 µM
- TGI (RXF 393 renal): 34.9 µM
- TGI (SK-MEL-5 melanoma): 28.3 µM
- TGI (SNB-19 CNS): 37.5 µM
- TGI (T-47D breast): 37.5 µM
- TGI (UACC-257 melanoma): 30.8 µM

SMILES: C(=Nc1ccc(-c2nc3ccccc3s2)cc1)c1ccc[nH]1
- TGI (786-0 renal): 52.4 µM
- TGI (CAKI-1 renal): 78.3 µM
- TGI (EKVX NSCLC): 45.4 µM
- TGI (HT29 colon): 38.8 µM
- TGI (K-562 leukemia): 66.6 µM
- TGI (MOLT-4 leukemia): 38.8 µM
- TGI (NCI-H226 lung): 35.6 µM
- TGI (NCI-H23 lung): 37 µM
- TGI (NCI/ADR-RES ovarian): 44.6 µM
- TGI (OVCAR-3 ovarian): 39.5 µM
- TGI (OVCAR-4 ovarian): 89.7 µM
- TGI (RXF 393 renal): 31.3 µM
- TGI (SK-MEL-5 melanoma): 30.7 µM
- TGI (SNB-19 CNS): > 100 µM
- TGI (T-47D breast): 47.3 µM
- TGI (UACC-257 melanoma): 31.2 µM

SMILES: Cc1cc(S(=O)(=O)Nc2n[nH]c(N)n2)c(Cl)cc1Cl
- TGI (786-0 renal): > 10 µM
- TGI (CAKI-1 renal): > 10 µM
- TGI (EKVX NSCLC): > 10 µM
- TGI (HT29 colon): > 10 µM
- TGI (K-562 leukemia): > 10 µM
- TGI (MOLT-4 leukemia): > 10 µM
- TGI (NCI-H226 lung): > 10 µM
- TGI (NCI-H23 lung): > 10 µM
- TGI (NCI/ADR-RES ovarian): > 10 µM
- TGI (OVCAR-3 ovarian): > 10 µM
- TGI (OVCAR-4 ovarian): > 10 µM
- TGI (RXF 393 renal): > 10 µM
- TGI (SK-MEL-5 melanoma): > 10 µM
- TGI (SNB-19 CNS): > 10 µM
- TGI (T-47D breast): > 10 µM
- TGI (UACC-257 melanoma): > 10 µM

SMILES: CN(C)c1ccc(/C=C/c2sc3ccccc3[n+]2C)cc1
- TGI (786-0 renal): 14.9 µM and > 100 µM
- TGI (CAKI-1 renal): 13.2 µM and 11.6 µM
- GI50 (EKVX NSCLC): 9.19 µM and 2.31 µM
- TGI (EKVX NSCLC): 31.9 µM and 19.8 µM
- GI50 (HT29 colon): 2.71 µM and 1.14 µM
- TGI (HT29 colon): 11.8 µM and 12 µM
- GI50 (K-562 leukemia): 0.515 µM and 0.856 µM
- TGI (K-562 leukemia): 4.26 µM and 26.2 µM
- TGI (MOLT-4 leukemia): 0.957 µM and 1.31 µM
- TGI (NCI-H226 lung): 15.4 µM and 7.31 µM
- TGI (NCI-H23 lung): 8.47 µM and 16.7 µM
- TGI (NCI/ADR-RES ovarian): > 100 µM
- TGI (OVCAR-3 ovarian): 3.82 µM and 2.86 µM
- TGI (OVCAR-4 ovarian): 10.2 µM and 9.3 µM
- GI50 (RXF 393 renal): 11 µM and 5.02 µM
- TGI (RXF 393 renal): 27.8 µM and 36.3 µM
- TGI (SK-MEL-5 melanoma): 3.93 µM and 3.27 µM
- TGI (SNB-19 CNS): 14 µM and > 100 µM
- TGI (T-47D breast): 11.1 µM and 30.5 µM
- TGI (UACC-257 melanoma): 7.85 µM and 11.9 µM

SMILES: OC1COC2CC(Nc3ccccn3)OC12 (stereo not drawn)
- TGI (786-0 renal): > 100 µM
- TGI (CAKI-1 renal): > 100 µM
- TGI (EKVX NSCLC): > 100 µM
- TGI (HT29 colon): > 100 µM
- TGI (K-562 leukemia): > 100 µM
- TGI (MOLT-4 leukemia): > 100 µM
- TGI (NCI-H226 lung): > 100 µM
- TGI (NCI-H23 lung): > 100 µM
- TGI (NCI/ADR-RES ovarian): > 100 µM
- TGI (OVCAR-3 ovarian): > 100 µM
- TGI (OVCAR-4 ovarian): > 100 µM
- TGI (RXF 393 renal): > 100 µM
- TGI (SK-MEL-5 melanoma): > 100 µM
- TGI (SNB-19 CNS): > 100 µM
- TGI (T-47D breast): > 100 µM
- TGI (UACC-257 melanoma): > 100 µM

SMILES: COC(=O)c1cc(OC)c(OC)c(OC)c1-c1cc2c(cc1C=O)OCO2
- TGI (786-0 renal): > 10 µM
- TGI (CAKI-1 renal): > 10 µM
- TGI (EKVX NSCLC): > 10 µM
- TGI (HT29 colon): > 10 µM
- TGI (K-562 leukemia): > 10 µM
- TGI (MOLT-4 leukemia): > 10 µM
- TGI (NCI-H226 lung): > 10 µM
- TGI (NCI-H23 lung): > 10 µM
- TGI (NCI/ADR-RES ovarian): > 10 µM
- TGI (OVCAR-3 ovarian): > 10 µM
- TGI (OVCAR-4 ovarian): > 10 µM
- TGI (RXF 393 renal): > 10 µM
- TGI (SK-MEL-5 melanoma): > 10 µM
- TGI (SNB-19 CNS): > 10 µM
- TGI (T-47D breast): > 10 µM
- TGI (UACC-257 melanoma): > 10 µM

— PubChem BioAssay (NCI)
